Results on four compounds are retold here after US6605626B2, “Antithrombotic agents” (Eli Lilly and Company, priority 1997, dated 2003).

Structures are written as SMILES.

`CCNc1ccc(C(=O)Nc2ccc(OC)cc2)c(NC(=O)c2ccc(C(C)(C)C)cc2)c1` [Example 60a, 2-(4-tert-Butylbenzoylamino)-4-ethylamino-N-(4-methoxyphenyl)benzamide] showed a melting point of 205 to 207.5 °C.

Turning to `COc1ccc(C(=O)Nc2cccc(O)c2NC(=O)c2ccc(OC)cc2)cc1` [Example 158, 2,3-bis[(4-Methoxybenzoyl)amino]phenol], the melting point fell in the range of 208 to 209 °C.

`COc1ccc(C(=O)Nc2ccc(OC)cc2NC(=O)c2ccc(OC)cc2)cc1` [Example 155, 4-Methoxy-N^1,N^2-bis(4-methoxybenzoyl)-1,2-benzenediamine]: the melting point is 238 to 239 °C.

Compound `COc1ccc(NC(=O)c2ccccc2NC(=O)c2ccc(C(C)(C)C)cc2)cc1` [Example 89, 2-(4-tert-Butylbenzoylamino)-N-(4-methoxyphenyl)benzamide] gave a melting point of 208 to 210 °C.
